These results are taken from DBAASP.

Among the test systems are Staphylococcus aureus; Vibrio cholerae N16961; Klebsiella pneumoniae; Escherichia coli D31; Micrococcus luteus A270; Candida albicans MDM8; Escherichia coli SBS 363; Escherichia coli UB1005.
Experiment in all cases: ≥ marks a high value that may be exact or a test limit, other limits are often not marked, values filed in µg/mL are converted to µM
In test [1] the test system is Enterococcus faecalis PCM 2673.
The subject of test [2] is Staphylococcus aureus ATCC 25923.
The test system of test [3] is Escherichia coli ATCC 25922.
In test [4] the test system is Candida albicans ATCC 10231.
Test [5] deals with Pseudomonas aeruginosa ATCC 9027.
The subject of test [6] is Streptococcus mutans ATCC 25175.
For test [7], the system named is Pseudomonas aeruginosa ATCC 15442.
In test [8] the test system is Pseudomonas aeruginosa NCIB 10421.
The subject of test [9] is Pseudomonas aeruginosa NCTC 13437.
Test [10] relates to Bacillus subtilis ATCC 6633.
The subject of test [11] is Staphylococcus aureus ATCC 29213.
For test [12], the system named is Staphylococcus aureus USA 300.
The test system of test [13] is Escherichia coli NCTC 12923.
Test [14] has as its system Serratia marcescens ATCC 4112.
The test system of test [15] is Staphylococcus aureus ATCC 9144.
Test [16] has as its system Enterobacter cloacae beta-12.
Test [17] relates to Pseudomonas aeruginosa PAO1.
Test [18] relates to Candida tropicalis IOC 4560.
Test [19] has as its system Bacillus megaterium ATCC 10778.
Test [20] relates to Acinetobacter baumannii ATCC 17978.
In test [21] the test system is Klebsiella pneumoniae NCTC 13368.
In test [22] the test system is Staphylococcus epidermidis ATCC 12228.
Test [23] relates to Salmonella enterica subsp. enterica serovar Typhi CMCC 50071.
Test [24] deals with Salmonella enterica subsp. enterica serovar Typhimurium C77-31.
The subject of test [25] is Salmonella enterica subsp. enterica serovar Pullorum C79-13.
Test [26] deals with Salmonella enterica subsp. enterica serovar Typhimurium ATCC 14028.
Test [27] concerns Streptococcus pyogenes ATCC 19615.
The test system of test [28] is Listeria ivanovii Li 4pVS2.
For test [29], the system named is Enterococcus faecalis ATCC 29212.
Test [30] has as its system Klebsiella pneumoniae ATCC 13883.
For test [31], the system named is Candida albicans ATCC 90028.
Test [32] deals with Pseudomonas aeruginosa ATCC 27853.
The subject of test [33] is Acinetobacter baumannii ATCC 19606.
The subject of test [34] is Candida parapsilosis ATCC 22019.

Values after ≈ are worked out from the molar mass of the structure shown. Values joined by “and” are separate entries in the source; they are usually repeats but may differ in a detail not shown here. Identical values can stand only once.

One may read the MIC as the lowest concentration found to suppress growth. Regarding `CC[C@H](C)[C@H](NC(=O)[C@H](CCCCN)NC(=O)[C@H](CCCCN)NC(=O)[C@@H](NC(=O)[C@@H](NC(=O)[C@H](CC(=O)O)NC(=O)[C@H](Cc1ccccc1)NC(=O)[C@H](C)NC(=O)CN)[C@@H](C)CC)[C@@H](C)CC)C(=O)N[C@@H](C)C(=O)N[C@@H](CCC(=O)O)C(=O)N[C@@H](CO)C(=O)N[C@@H](Cc1ccccc1)C(N)=O` [GAFDIIKKIAESF], the MIC in [1] is ≥ 356 µM; in test [2], > 356 µM; in [3], 178 µM (≈ 256 µg/mL); in [4], 178 µM (≈ 256 µg/mL); in test [5] it was 356 µM (≈ 512 µg/mL).
`CC[C@H](C)[C@H](NC(=O)CNC(=O)[C@H](CC(C)C)NC(=O)[C@H](CC(C)C)NC(=O)[C@H](C)NC(=O)[C@H](CO)NC(=O)[C@H](CCCCN)NC(=O)[C@@H](NC(=O)CN)[C@@H](C)CC)C(=O)N[C@@H](C)C(=O)N[C@@H](CCCCN)C(=O)N[C@@H](CC(N)=O)C(=O)N[C@H](C(=O)NCC(=O)N[C@@H](CCSC)C(=O)N[C@@H](CO)C(=O)N[C@@H](CC(C)C)C(=O)N[C@@H](CC(C)C)C(=O)N[C@@H](CCC(N)=O)C(=O)N[C@@H](CCCCN)C(=O)N[C@@H](C)C(=O)N[C@@H](CCC(N)=O)C(=O)N[C@H]1CSSC[C@@H](C(N)=O)NC(=O)[C@H](CO)NC(=O)CNC(=O)[C@H](CO)NC(=O)[C@H](CC(C)C)NC(=O)[C@H](CCCCN)NC1=O)C(C)C` [GIKSALLGIAKNVGMSLLQKAQCKLSGSC]: the MIC was 8 µM and 22 µM in test [2]; 16 µM (≈ 46.7 µg/mL) in the test with Staphylococcus aureus; 10 µM (≈ 29.2 µg/mL) with Vibrio cholerae N16961; 8 µM (≈ 23.3 µg/mL) in the test on Klebsiella pneumoniae.
As for `CC[C@H](C)[C@H](NC(=O)[C@@H](NC(=O)CN)C(C)C)C(=O)N[C@H](C(=O)N[C@@H](CC(=O)O)C(=O)N[C@@H](C)C(=O)N[C@@H](CC(C)C)C(=O)N[C@@H](CCCCN)C(=O)NCC(=O)N[C@@H](C)C(=O)N[C@@H](C)C(=O)N[C@@H](CCCCN)C(=O)N[C@H](C(=O)N[C@H](C(=O)N[C@@H](C)C(=O)N[C@@H](C)C(=O)N[C@@H](CCC(=O)O)C(=O)N[C@@H](CC(C)C)C(=O)N1CCC[C@H]1C(=O)N[C@@H](CCCN=C(N)N)C(=O)N[C@@H](CCCCN)C(=O)N[C@@H](C)C(=O)N[C@@H](Cc1cnc[nH]1)C(N)=O)C(C)C)[C@@H](C)O)[C@@H](C)O` [GVITDALKGAAKTVAAELPRKAH], the MIC was > 100 µM in test [2]; ≥ 100 µM in the test with Escherichia coli D31; ≥ 100 µM in test [6]; > 100 µM in [4]; ≥ 100 µM in test [7].
For the compound `CC[C@H](C)[C@H](N)C(=O)N[C@@H](CC(C)C)C(=O)N[C@@H](CCCCN)C(=O)N[C@@H](CCCCN)C(=O)N[C@H](C(=O)N[C@@H](Cc1c[nH]c2ccccc12)C(=O)N[C@@H](CCC(=O)O)C(=O)NCC(=O)N[C@H](C(=O)N[C@@H](CCCCN)C(=O)N[C@@H](CO)C(=O)N[C@@H](CC(C)C)C(=O)N[C@@H](Cc1ccccc1)C(N)=O)[C@@H](C)CC)[C@@H](C)CC` [ILKKIWEGIKSLF], the MIC in test [8] was 6.25 µM (≈ 9.84 µg/mL); in test [9], ≥ 40.6 µM; in the test on Micrococcus luteus A270, 0.78 µM (≈ 1.23 µg/mL); in test [10] it was 0.78 µM (≈ 1.23 µg/mL); in test [11], 1.56 µM (≈ 2.46 µg/mL); in [12], 10.2 µM (≈ 16 µg/mL). The minimal inhibitory concentration (MIC) in [13] was 5.08 µM (≈ 8 µg/mL); in [14] it was 0.36 µM (≈ 0.567 µg/mL); in test [15], 5.08 µM (≈ 8 µg/mL); in [16], 3.13 µM (≈ 4.93 µg/mL); in test [17] it was > 81.3 µM; in the test on Candida albicans MDM8 it was 1.56 µM (≈ 2.46 µg/mL). Further, the MIC was determined as 0.78 µM (≈ 1.23 µg/mL) in the test with Escherichia coli SBS 363; 0.78 µM (≈ 1.23 µg/mL) in [18]; 0.78 µM (≈ 1.23 µg/mL) in test [19]; 2.54 µM (≈ 4 µg/mL) in [20]; 10.2 µM (≈ 16 µg/mL) in [21].
`CSCC[C@H](NC(=O)[C@H](CCCN=C(N)N)NC(=O)[C@H](Cc1c[nH]c2ccccc12)NC(=O)[C@H](CCC(N)=O)NC(=O)[C@H](Cc1c[nH]c2ccccc12)NC(=O)[C@H](CCCN=C(N)N)NC(=O)[C@H](CCCN=C(N)N)NC(=O)[C@H](CS)NC(=O)[C@@H](N)CCCCN)C(=O)N[C@@H](CCCCN)C(=O)N[C@@H](CCCCN)C(N)=O` [KCRRWQWRMKK]: the MIC was 128 µM (≈ 205 µg/mL) in test [2]; > 128 µM in [11]; ≥ 128 µM against Escherichia coli UB1005; > 128 µM in test [22]; ≥ 128 µM in [23]; ≥ 128 µM in test [24]. Besides, the MIC is ≥ 128 µM in [25] and > 128 µM in test [26].
As to `CC[C@H](C)[C@H](NC(=O)[C@H](CCCN=C(N)N)NC(=O)[C@H](Cc1ccc(O)cc1)NC(=O)CNC(=O)[C@H](Cc1ccc(O)cc1)NC(=O)[C@H](CCCN=C(N)N)NC(=O)[C@H](CC(C)C)NC(=O)[C@H](C)NC(=O)[C@H](CCC(N)=O)NC(=O)[C@H](CCC(=O)O)NC(=O)[C@@H](NC(=O)[C@H](CCC(N)=O)NC(=O)[C@H](CCCN=C(N)N)NC(=O)[C@H](CCSC)NC(=O)[C@H](Cc1ccc(O)cc1)NC(=O)[C@H](CCC(N)=O)NC(=O)[C@@H](N)CCCN=C(N)N)[C@@H](C)CC)C(=O)N[C@@H](CO)C(=O)N[C@@H](CCCN=C(N)N)C(=O)N[C@@H](CCCN=C(N)N)C(N)=O` [RQYMRQIEQALRYGYRISRR], the MIC in test [27] was ≥ 50 µM; in test [2] it was 100 µM (≈ 264 µg/mL); in test [3], 6.25 µM (≈ 16.5 µg/mL); in test [28], ≥ 50 µM; in test [29], > 100 µM; in test [30], ≥ 80 µM. Further, the MIC in test [31] is ≥ 200 µM; in [32] it was 25 µM (≈ 66.1 µg/mL); in test [33] it was 6.25 µM (≈ 16.5 µg/mL); in [34] it was ≥ 50 µM.
